Entries after “also recorded” stand apart in the source; their conditions may differ. Residues, ends and D or L forms follow the SMILES beside them. No end group written: not given here.

In assay [1] the test system is pain caused by formalin. The assay is described as follows: Formalin test (pain behavioral response). The format is in vivo, ICR mouse. The settings on record: 2nd phase (20 to 40 minutes), vs saline group, FIG. 4. The method, then:
An in vivo test was performed with the peptides of SEQ ID NOS: 11 and 12.
• a. […] Preparation of positive control material: Pregabalin was homogeneously dissolved in a saline solution at a concentration of 3 mg/mL. • e.
• a. Saline solution, pregabalin, peptide of SEQ ID NO: 11, and peptide of SEQ ID NO: 12, the administered materials corresponding to each group, were administered in advance about one hour before formalin administration. • b. One hour after the test material administration to each group, 20 μL of 2% formalin was injected subcutaneously into the sole of the right foot. • c. After administering […] to each subject, the time at which pain behavioral responses (licking, biting, etc.) appeared was measured in the intervals of 0 to 5 minutes and 20 to 40 minutes. • d. Grooming in regions other than the region where formalin was administered was not counted. • e.
The formalin test is a method of evaluating the degree of pain by subcutaneously injecting formalin into the dorsum of the hind paw of a mouse and then observing the behavior that appears thereafter. The degree of pain is evaluated by the number of times or duration of flinching responses. […]

The subject of assay [2] is CCI pain model. The assay is described as follows: CCI pain model, Von Frey test. The settings on record: amount printed 1 mg/ml (0.1 mg/mL, 200 μL I.P.); two hours after administration; FIG. 6.
For assay [3], the target named is T1, hTRPV1 (Homo sapiens, UniProt Q8NER1).
T1 construct: expressed in transfected cells; the earlier reading calls it TRPV1 CHO-K1 cells
T1 sequence (Q8NER1 whole entry): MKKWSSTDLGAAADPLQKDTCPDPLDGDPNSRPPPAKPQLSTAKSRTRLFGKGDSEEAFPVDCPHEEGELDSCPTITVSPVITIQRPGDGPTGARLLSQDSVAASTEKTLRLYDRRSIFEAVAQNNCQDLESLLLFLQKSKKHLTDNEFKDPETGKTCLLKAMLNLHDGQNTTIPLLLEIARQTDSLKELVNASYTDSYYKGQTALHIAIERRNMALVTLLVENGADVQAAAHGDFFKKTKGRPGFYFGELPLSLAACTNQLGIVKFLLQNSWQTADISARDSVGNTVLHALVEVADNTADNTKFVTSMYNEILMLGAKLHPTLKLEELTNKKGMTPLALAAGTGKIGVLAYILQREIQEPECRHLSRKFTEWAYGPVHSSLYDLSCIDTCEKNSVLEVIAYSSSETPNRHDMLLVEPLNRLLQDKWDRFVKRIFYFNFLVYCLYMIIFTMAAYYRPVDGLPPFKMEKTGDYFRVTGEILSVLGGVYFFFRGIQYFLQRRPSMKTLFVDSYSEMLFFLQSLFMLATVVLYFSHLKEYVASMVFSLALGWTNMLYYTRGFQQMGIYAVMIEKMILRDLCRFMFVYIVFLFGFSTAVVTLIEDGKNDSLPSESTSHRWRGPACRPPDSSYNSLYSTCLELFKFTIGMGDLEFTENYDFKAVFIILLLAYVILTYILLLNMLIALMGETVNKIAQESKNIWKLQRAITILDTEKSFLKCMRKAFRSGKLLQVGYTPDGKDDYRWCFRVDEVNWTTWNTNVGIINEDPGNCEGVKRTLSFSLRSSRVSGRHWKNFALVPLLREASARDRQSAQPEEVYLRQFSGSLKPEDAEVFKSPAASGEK
Description: Calcium imaging (Fura-2AM) of capsaicin-induced Ca2+ influx in TRPV1 CHO-K1 cells. The format is cell-based. The settings on record: for TRPV1 inhibitory activity / inhibition rate (screening): screening of peptides; for inhibition at 0.001 µM: peptide at 1 nM; for inhibition at 0.005 µM: peptide at 5 nM; for inhibition at 0.1 µM: peptide at 100 nM; for influx of calcium into TRPV1 channel (ΔF/F): FIG. 1, peptide injected. As for the experimental part: The TRPV1 inhibitory effect of various short-length peptides, including the 49 peptides in Tables 5 and 6, was evaluated by the following method.
All reagents used in cell culture were sterilized products. The culture medium of the cell line is shown in Table 7 below, and the culture was performed in a cell incubator with under the culture conditions of […] and 37° C. In addition, when cryopreserved cells (stock) were thawed and used, they were subcultured two to three times before use in the test.
After removing the cell culture medium by suction, 10 ml DPBS was added to wash the cells, and then the DPBS was removed by suction. 2 ml 0.05% trypsin-EDTA was added, and then the cells were cultured in a cell incubator at 37° C. for three to five minutes. Through a microscope, detachment of the cells from the bottom surface of the culture dish was confirmed, and 8 ml of the cell culture medium including 10% FBS was added to inactivate the trypsin-EDTA. Cells in the culture dish were collected, pipetted, and transferred to a 15 ml tube.
Centrifugation was performed at 800 rpm for five minutes, and all the supernatant except the cell pellet was removed. Then, the cell culture medium was added, and the pellet was carefully loosened.
After measuring the number of cells with a hemocytometer, the cells were dispensed at 1×10^3 cells/10 μl/coverslip at the center of a 12 mm cover slip coated with poly-D-lysine.
A 35π petri dish containing the cover slip was stored in a cell incubator, and when the cells were attached to the cover slip after one to two hours, 2 ml of the cell culture medium was added and stored in the cell incubator again.
The sample was added to 200 ml distilled water (DW) and mixed according to the composition in Table 8 below.
The pH was adjusted to a range of 7.3 to 7.4 using 5 N NaOH, and then distilled water (DW) was added to adjust the final volume to 250 ml.
Capsaicin was dissolved in 100% ethanol to prepare a 10 mM stock. Capsaicin, a TRPV1 activating substance, was diluted in the extracellular solution to a concentration of 0.1-1 mM before using in the experiment.
The test material (peptide according to the present invention) was dissolved in a solvent and then diluted to an appropriate concentration in the extracellular solution before using in the experiment.
2 mM Fura-2AM was prepared by adding 24.95 ml of DMSO to 50 mg of Fura 2AM powder, which is used as a membrane-permeable fluorescent marker. After the experiment, the remaining Fura-2AM was stored at −20° C. for reuse and covered with silver foil to prevent exposure to light.
2 mM Fura-2AM was diluted 1/1000 in a cell culture medium without FBS and antibiotics to prepare 1 ml Fura-2AM (based on a 35π Petri dish) to a final concentration of […]. After removing the cell culture medium in the 35π Petri dish, the cells were washed once with 2 ml DPBS. 1 ml of the Fura-2AM solution prepared above was transferred to a 35π Petri dish, and the cells were cultured in a cell incubator for 40 min.
To operate calcium imaging equipment, an IRIS-9 camera was turned on and then a computer was powered on. To operate a perfusion system, a suction device was powered on, 20 to 30 ml of distilled water was added to each perfusion syringe, and suction was performed while allowing the distilled water to flow into the chamber (syringe wash).
The extracellular solution and test materials prepared in advance were placed in the syringes washed with distilled water, and smooth flow of the solutions from each syringe into the chamber was confirmed. At this time, clips were used to block all the lines except one syringe line to be checked. In other words, the flow of the solution through only a single syringe line without the clip was checked (When the solution flows through two or more lines, the solutions could have been mixed.).

Assay [4] relates to CIPN pain model. The assay is described as follows: CIPN (paclitaxel) pain model, Von Frey test. Conditions: one, three and seven hours after administration, FIG. 8. The format is in vivo, SD rat. The method, then:
• a. […] Preparation of positive control material: Prebabalin was homogeneously dissolved in a saline solution at a concentration of 30 mg/10 mL and used. • e.
• a. […] Chemotherapy induced peripheral neuropathy (CIPN) pain modeling
Paclitaxel was dissolved at 2 mg/10 ml in a solution prepared by mixing cremophor EL and absolute ethanol at a 1:1 ratio, and the resulting solution was administered intraperitoneally in the amount of 2 ml each. Chemotherapy-induced pain was induced by administering paclitaxel once a day at 24-hour intervals for 4 days. • c. Confirmation of pain induction
Drug administration and confirmation of analgesic efficacy
Statistical analysis processing

The test system of assay [5] is SNL pain model. The assay is described as follows: SNL pain model, Von Frey test. The settings on record: 2 mg/kg I.P.; one, three and seven hours after administration; FIG. 7.
For assay [6], the system named is pain caused by capsaicin. Description: Capsaicin test (pain behavioral response). Conditions: 0.5 mg/kg I.P. one hour before 0.01% capsaicin; 0 to 5 minutes; FIG. 5. The format is in vivo, C57BL/6N mouse. The method, then: An in vivo test was performed with the peptides of SEQ ID NOS: 5, 6, 9, and 11.
• a. […] Preparation of positive control material: BCTC was homogeneously dissolved in a saline solution at a concentration of 3 mg/mL. • e.
• a. Preparation of test materials: The peptides of SEQ ID NOS: 5, 6, 9, and 11 were dissolved in a saline solution to prepare at a concentration of 0.05 mg/mL. • b.
• a. Saline solution, BCTC, and peptides of SEQ ID NOS: 5, 6, 9, and 11, the administered materials corresponding to each group, were administered in advance about one hour before capsaicin administration. • b. One hour after the test material administration to each group, 20 μL of 0.01% capsaicin was injected subcutaneously into the sole of the right foot. • c. After administering […] to each subject, the time at which pain behavioral responses (licking, biting, etc.) appeared was measured in the interval of 0 to 5 minutes. • d. Grooming in regions other than the region where capsaicin was administered was not counted. • e.
In a previous study, the pain inhibiting effect was confirmed through a formalin test. To confirm whether such pain inhibiting phenomenon is through TRPV1, the pain response pattern was investigated after subcutaneous injection of capsaicin, which is one of the TRPV1 activators.

Setting [7] is: CHO-K1, read-out: hTRPV1 activity inhibited compared to the control group.

As for YGQCYMYMQKW [SEQ ID NO: 12], in assay [1] (4 mg/kg I.P. one hour before 2% formalin), the “pain behavioral response (licking, biting) after formalin” value is reported as “significant decrease of the pain behavioral response in the 2nd phase”. Further, the “pain behavioral response threshold (Von Frey), after vs before administration” value in assay [2], in assay [4] (2 mg/kg I.P.) and in assay [5] was “the pain behavioral response threshold increased after the administration compared to before the administration” throughout. In assay [3], the “TRPV1 inhibitory activity / inhibition rate (screening)” value is “high inhibition rate of TRPV1”.

Turning to AGQCYMFMQKY [SEQ ID NO: 9], the “pain behavioral response (licking, biting) after capsaicin” value in assay [6] is “inhibited the pain caused by the peripheral and central sensitization”. Also, in assay [3], the “TRPV1 inhibitory activity / inhibition rate (screening)” value is “high inhibition rate of TRPV1”.

As for SGQCYMFMQKY [SEQ ID NO: 6, SGQCYMFMQKY], the “pain behavioral response (licking, biting) after capsaicin” value in assay [6] is “significant decrease of the pain behavioral response; also recorded: inhibited the pain caused by the peripheral and central sensitization”. For the same compound, in assay [3] (CHO-K1, peptide at 0.5 nM, read-out: hTRPV1 activity inhibited compared to the control group), the inhibition at 0.0005 µM is roughly 9%. In assay [3] (setting [7]), the inhibition at 0.001 µM was 16%, the inhibition at 0.005 µM was found to be 51% and the inhibition at 0.1 µM came to 70%. Further, in assay [3], the “influx of calcium into TRPV1 channel (ΔF/F)” value is “the influx of calcium was significantly reduced” and the “TRPV1 inhibitory activity / inhibition rate (screening)” value is given as “high inhibition rate of TRPV1”.

YGQCYMWMQKW [SEQ ID NO: 11]: in assay [1] (8 mg/kg I.P. one hour before 2% formalin), the “pain behavioral response (licking, biting) after formalin” value was “significant decrease of the pain behavioral response in the 2nd phase”. The “pain behavioral response threshold (Von Frey), after vs before administration” value in assay [2], in assay [4] (4 mg/kg I.P.) and in assay [5] was “the pain behavioral response threshold increased after the administration compared to before the administration” in each case. In addition, the “pain behavioral response (licking, biting) after capsaicin” value in assay [6] is “significant decrease of the pain behavioral response; also recorded: inhibited the pain caused by the peripheral and central sensitization”. The “TRPV1 inhibitory activity / inhibition rate (screening)” value in assay [3] is recorded as “high inhibition rate of TRPV1”.

Take `C[C@H](NC(=O)[C@H](CCCCN)NC(=O)[C@@H](N)Cc1ccc(O)cc1)C(=O)N[C@@H](CC(N)=O)C(=O)N[C@@H](Cc1ccc(O)cc1)C(=O)N[C@@H](CS)C(=O)N[C@@H](CO)C(=O)NCC(=O)N[C@@H](CCC(N)=O)C(=O)N[C@@H](CS)C(=O)N[C@@H](Cc1ccc(O)cc1)C(=O)O` [SEQ ID NO: 5, YKANYCSGQCY] (H-YKANYCSGQCY-OH; N-terminus and C-terminus assumed): the “pain behavioral response (licking, biting) after capsaicin” value in assay [6] is “significant decrease of the pain behavioral response; also recorded: inhibited the pain caused by the peripheral and central sensitization”. In assay [3] (setting [7]), the inhibition at 0.001 µM is roughly 20%, the inhibition at 0.005 µM is 53% and the inhibition at 0.1 µM worked out at 77%. For the same compound, the inhibition at 0.01 µM in assay [3] (CHO-K1, peptide at 10 nM, read-out: hTRPV1 activity inhibited compared to the control group) turned out to be 75%. Moreover, the inhibition at 0.05 µM in assay [3] (CHO-K1, peptide at 50 nM, read-out: hTRPV1 activity inhibited compared to the control group) turned out to be 79%. In addition, in assay [3] (CHO-K1, peptide at 500 nM, read-out: hTRPV1 activity inhibited compared to the control group), the inhibition at 0.5 µM amounted to 95%. Moreover, in assay [3], the “influx of calcium into TRPV1 channel (ΔF/F)” value is given as “the influx of calcium was significantly reduced” and the “TRPV1 inhibitory activity / inhibition rate (screening)” value is “high inhibition rate of TRPV1”.

The record behind these values is patent US20250002532A1, “A NOVEL PEPTIDE AND THE USE THEREOF” (Rudacure Corporation, priority 2023, published 2025).
